≈ marks a conversion by molar mass, not a printed value. Where two headings read alike, the source gives them in different places.
Assays:
[1] = system: chloroquine-resistant K1 strain of P. falciparum; assay: In vitro antimalarial semiautomated microdilution assay ([3H]-hypoxanthine incorporation), K1 strain; format: cell-based, Plasmodium falciparum; conditions: Plasmodium falciparum
In short: (§1)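 IC50 values come from Logit regression of [3H]-hypoxanthine uptake data. Parasites were intraerythrocytic P. falciparum forms taken from asynchronous stock cultures and tested by semiautomated microdilution.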

[2] = system: chloroquine-sensitive NF54 strain of P. falciparum; assay: In vitro antimalarial semiautomated microdilution assay ([3H]-hypoxanthine incorporation), NF54 strain; format: cell-based, Plasmodium falciparum; conditions: Plasmodium falciparum
In short: as §1

[3] = system: ANKA strain of P. berghei; assay: Single dose STI in vivo screen in infected mice; parameters: species or system Plasmodium berghei; conditions: for Survival (days) 10 mg/kg po: single 10 mg/kg po in 3% ethanol and 7% Tween 80; for Survival (days) 10 mg/kg po / Survival (days) 10 mg/kg SSV po / Survival (days) 10 mg/kg sc: untreated 6-7 days; for Activity (%) 10 mg/kg po: single 10 mg/kg po in 3% ethanol and 7% Tween 80 on day 1 post-infection; for Survival (days) 10 mg/kg SSV po: single 10 mg/kg po in SSV; for Activity (%) 10 mg/kg SSV po: single 10 mg/kg po in standard suspending vehicle (SSV) on day 1 post-infection; for Survival (days) 10 mg/kg sc: single 10 mg/kg sc in 3% ethanol and 7% Tween 80; for Activity (%) 10 mg/kg sc: single 10 mg/kg sc in 3% ethanol and 7% Tween 80 on day 1 post-infection
[4] = K1, 72 h, read-out: IC50 (ng/ml) K1, chloroquine-resistant K1 strain, 72 h incubation
[5] = NF54, 72 h, read-out: IC50 (ng/ml) NF54, chloroquine-sensitive NF54 strain, 72 h incubation
[6] = percent reduction in parasitemia on day 3
[7] = chloroquine-resistant K1 strain, 72 h incubation, read-out: IC50 (ng/ml) K1
[8] = chloroquine-sensitive NF54 strain, 72 h incubation, read-out: IC50 (ng/ml) NF54

Structure (SMILES) | IC50 [1, 4] [ng/mL] | IC50 [2, 5] [ng/mL] | Survival (days) 10 mg/kg po [3] | Activity (%) 10 mg/kg po [3, 6] [%] | Survival (days) 10 mg/kg SSV po [3] | Activity (%) 10 mg/kg SSV po [3, 6] [%] | Survival (days) 10 mg/kg sc [3] | Activity (%) 10 mg/kg sc [3, 6] [%] | IC50 [1, 7] [ng/mL] | IC50 [2, 8] [ng/mL] | Survival (days) 3 mg/kg SSV po ([3]; single 3 mg/kg po in SSV) [days] | Activity (%) 3 mg/kg SSV po ([3]; single 3 mg/kg po in SSV, percent reduction in parasitemia on day 3) [%]
CN(C)C(=O)N[C@H]1CC[C@]2(CC1)OOC1(O2)C2CC3CC(C2)CC1C3 (some centres unmarked) [OZ187] | 4 (≈ 11.4 nM) | 6.8 (≈ 19.4 nM) | 7.7 days | 77 | 10.0 days | 94 | 7.0 days | 77 |  |  |  | 
CONC(=O)C[C@H]1CC[C@]2(CC1)OOC1(O2)C2CC3CC(C2)CC1C3 (some centres unmarked) [OZ213] |  |  | 8.0/8.0/8.0 days | 83 | 8.0/8.0/8.0 days | 74 | 8.0/8.0/8.0 days | 85 | 2.3 (≈ 6.54 nM) | 2.8 (≈ 7.97 nM) |  | 
O=C(NC[C@H]1CC[C@]2(CC1)OOC1(O2)C2CC3CC(C2)CC1C3)c1ccncc1 (some centres unmarked) [OZ255] |  |  | 9.0 days | 99.61 | 8.7 days | 99.54 | 10.0 days | 99.92 | 2.2 (≈ 5.52 nM) | 1.1 (≈ 2.76 nM) |  | 
OC1(c2nccs2)CCC2(CC1)OOC1(O2)C2CC3CC(C2)CC1C3 (centres unmarked) [OZ247] |  |  | 6.3 days | 57 | 6.0 days | 27 | 9.0 days | 99.85 | 1.8 (≈ 4.95 nM) | 2.3 (≈ 6.33 nM) |  | 
O=C1CNC(=O)N1C[C@H]1CC[C@]2(CC1)OOC1(O2)C2CC3CC(C2)CC1C3 (some centres unmarked) [OZ206] | 1 (≈ 2.66 nM) | 2.7 (≈ 7.17 nM) | 8.0 days | 93 | 8.7 days | 92 | 9.7 days | 91 |  |  |  | 
O=C(OC1CCC2(CC1)OOC1(O2)C2CC3CC(C2)CC1C3)n1ccnc1 (centres unmarked) [OZ147, Adamantane-2-spiro-3′-1′,2′,4′-trioxaspiro[4.5]decane-8′-yl imidazole-1-carboxylate] |  |  | 8.0 days | 85 | 8.0 days | 71 | 19.7 days | 99.89 | 1.1 (≈ 2.94 nM) | 1.8 (≈ 4.81 nM) |  | 
NC[C@H]1CC[C@@]2(CC1)OOC1(O2)C2CC3CC(C2)CC1C3 (some centres unmarked) [OZ269] |  |  | 10.7 days | 98 | 11.3 days | 86 | 9.0 days | 99.92 | 0.32 (≈ 1.09 nM) | 0.61 (≈ 2.08 nM) |  | 
CCOC(=O)c1cccc([C@H]2CC[C@]3(CC2)OOC2(O3)C3CC4CC(C3)CC2C4)c1 (some centres unmarked) [OZ208] |  |  | 6.3 days | 0 | 6.7 days | 29 | 5.7 days | 10 | 6 (≈ 14.5 nM) | 6.5 (≈ 15.8 nM) |  | 
O=C(NO)c1ccc([C@H]2CC[C@]3(CC2)OOC2(O3)C3CC4CC(C3)CC2C4)cc1 (some centres unmarked) [OZ183] | 0.8 (≈ 2 nM) | 2.1 (≈ 5.26 nM) | 6.0 days | 65 | 6.0 days | 19 | 8.3 days | 81 |  |  |  | 
O=C1c2ccccc2C(=O)N1CC1(c2ccccc2)CCC2(CC1)OOC1(O2)C2CC3CC(C2)CC1C3 (centres unmarked) [OZ97] | 2.2 (≈ 4.4 nM) | 1.8 (≈ 3.6 nM) | 6.7 days | 59 | 5.3 days | 2 | 7.0 days | 66 |  |  |  | 
O=C(O)C1CCN(C(=O)C[C@H]2CC[C@]3(CC2)OO[C@]2(O3)C3CC4CC(C3)CC2C4)CC1 [OZ312] | 19 (≈ 43.8 nM) | 27 (≈ 62.3 nM) |  |  | 7.2 days | 43 |  |  |  |  | 6.2 | 13
